Experimental data taken from US20230096028A1, “BICYCLIC HETEROCYCLYL COMPOUNDS AND USES THEREOF” (Revolution Medicines, Inc., priority 2019, published 2023).

Experiments:
[1] = system: PC-9 cells (EGFR Ex19Del); assay: Potency Assay: pERK (SOS1 pERK IC50 Assay, AlphaLISA SureFire Ultra p-ERK1/2); type: cell-based; conditions: Homo sapiens; PC-9 cells (EGFR Ex19Del), 1 hour incubation, AlphaLISA p-ERK1/2; read-out: SOS1 pERK IC50
Method in brief: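 Cellular pERK1/2 by AlphaLISA SureFire Ultra after 1 h compound exposure (37° C., highest concentration 10 μM, 3-fold steps, duplicates) of EGFR Ex19Del PC-9 cells seeded the day before. A 4-parameter fit of signal versus log concentration gives IC50.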

[2] = target: T1, SOS1 catalytic domain (residues 564-1049) (Homo sapiens, UniProt Q07889); assay: Mode of Action Assay: inhibition of SOS1 nucleotide exchange activity (SOS1 TR-FRET IC50 Assay)
T1 sequence (Q07889 564-1049): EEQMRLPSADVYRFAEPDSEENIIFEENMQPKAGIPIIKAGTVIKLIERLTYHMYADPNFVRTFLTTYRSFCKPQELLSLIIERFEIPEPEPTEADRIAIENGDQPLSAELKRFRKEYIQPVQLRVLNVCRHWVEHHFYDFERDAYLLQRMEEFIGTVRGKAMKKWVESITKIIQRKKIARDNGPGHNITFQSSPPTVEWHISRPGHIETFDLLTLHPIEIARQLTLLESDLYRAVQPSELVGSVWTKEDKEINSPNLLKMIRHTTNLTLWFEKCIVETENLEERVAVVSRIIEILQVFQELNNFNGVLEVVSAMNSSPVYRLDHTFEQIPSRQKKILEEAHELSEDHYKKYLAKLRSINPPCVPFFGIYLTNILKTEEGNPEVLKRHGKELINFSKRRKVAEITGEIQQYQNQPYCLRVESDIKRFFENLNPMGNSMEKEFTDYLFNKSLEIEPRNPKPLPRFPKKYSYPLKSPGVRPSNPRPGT

[3] = target: T1, SOS1 catalytic domain (residues 564-1049); assay: Potency Assay: binding affinity to SOS1 using Surface Plasmon Resonance (SPR); parameters: SOS1 catalytic domain (residues 564-1049) immobilized on a sensor chip; conditions: immobilized SOS1 catalytic domain (residues 564-1049), read-out: SOS1 SPR Equilibrium Kd
Method in brief: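 Kd was obtained by plotting binding response, taken just before association ended, versus compound concentration on a Biacore 8K. Compounds flowed at 50 μL/min over streptavidin-captured avi-SOS1 catalytic domain (~6000 RU), followed by buffer dissociation; HEPES 0.01 M/NaCl 0.15 M/0.05% P20 buffer, double-referenced.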

Row | SMILES | IC50 [1] | IC50 [2] | Kd [3]
1 | C[C@@H](Nc1nc(Cl)nc2c1CN(C(=O)C1CCN(C)C1)C2)c1cccc(C(F)F)c1F (stereo partly drawn) [Example 319] | < 1000 nM | < 1000 nM | < 400 nM
2 | Cc1nc2c(c(N[C@H](C)c3cc(N)cc(C(F)(F)F)c3)n1)CN(S(=O)(=O)c1ccc(N)nc1)C2 [Example 36, (R)—N-(1-(3-amino-5-(trifluoromethyl)phenyl)ethyl)-6-((6-aminopyridin-3-yl)sulfonyl)-2-methyl-6,7-dihydro-5H-pyrrolo[3,4-d]pyrimidin-4-amine] | > 1000 nM | > 1000 nM | > 400 nM
3 | C[C@@H](Nc1nc(Cl)nc2c1CN(C(=O)N1CC3CC1CN3C1COC1)C2)c1cccc(C(F)F)c1F (stereo partly drawn) [Example 421] | < 1000 nM | < 1000 nM | < 400 nM
4 | C[C@@H](Nc1nc(Cl)nc2c1CN(C(=O)N1C3CC1CN(C1COC1)C3)C2)c1cccc(C(F)F)c1F [Example 422] | < 1000 nM | < 1000 nM | < 400 nM
5 | C[C@@H](Nc1nc(Cl)nc2c1CN(S(=O)(=O)C1CCOCC1)C2)c1cc(N)cc(C(F)(F)F)c1 [Example 51] | < 1000 nM | < 1000 nM | < 400 nM
6 | C[C@@H](Nc1nc(Cl)nc2c1CN(C(=O)N1CCCNCC1)C2)c1cccc(C(F)F)c1F [Example 400] | < 1000 nM | < 1000 nM | < 400 nM
7 | C[C@@H](Nc1nc(Cl)nc2c1CN(C(=O)c1cccnn1)C2)c1cc(N)cc(C(F)(F)F)c1 [Example 71] | < 1000 nM | < 1000 nM | < 400 nM
8 | C[C@@H](Nc1nc(Cl)nc2c1CN(C(=O)[C@H]1COCCN1)C2)c1cccc(C(F)F)c1F [Example 304] | > 1000 nM | < 1000 nM | < 400 nM
9 | C[C@@H](Nc1nc(Cl)nc2c1CN(C(=O)C1(C)CN(C)C1)C2)c1cc(N)cc(C(F)(F)F)c1 [Example 265] | < 1000 nM | < 1000 nM | < 400 nM
10 | C[C@@H](Nc1nc(Cl)nc2c1CN(C(=O)N1CCOCC1)C2)c1cccc(C(F)F)c1 [Example 486, 2-chloro-N-[(1R)-1-[3-(difluoromethyl)phenyl]ethyl]-6-(morpholine-4-carbonyl)-5H,6H,7H-pyrrolo[3,4-d]pyrimidin-4-amine] | > 1000 nM | < 1000 nM | < 400 nM
11 | C[C@@H](Nc1nc(Cl)nc2c1CN(C(=O)N1CC3COCC(C1)N3)C2)c1cccc(C(F)F)c1F [Example 385] | < 1000 nM | < 1000 nM | < 400 nM
12 | C[C@@H](Nc1nc(Cl)nc2c1CC(C(=O)N1CCOCC1)CC2)c1cc(N)cc(C(F)(F)F)c1 (stereo partly drawn) [Example 165, N-[(1R)-1-[3-amino-5-(trifluoromethyl)phenyl]ethyl]-2-chloro-6-(morpholine-4-carbonyl)-5,6,7,8-tetrahydroquinazolin-4-amine] | < 1000 nM | < 1000 nM | < 400 nM
13 | C[C@@H](Nc1nc(Cl)nc2c1CN(S(=O)(=O)N1CCN(C)CC1)CC2)c1cc(N)cc(C(F)(F)F)c1 [Example 184] | < 1000 nM | < 1000 nM | < 400 nM
14 | C[C@@H](Nc1nc(Cl)nc2c1CN(C(=O)N1CCNC3(CC3)C1)C2)c1cccc(C(F)(F)F)c1 [Example 374] | < 1000 nM | < 1000 nM | < 400 nM
15 | C[C@@H](Nc1nc(Cl)nc2c1CN(C(=O)N1CC3CCC(C1)N3)C2)c1cccc(C(F)F)c1F [Example 388] | < 1000 nM | < 1000 nM | < 400 nM
16 | C[C@@H](Nc1nc(Cl)nc2c1CN(C(=O)N1C3CCC1COC3)C2)c1cccc(C(F)F)c1F [Example 396] | < 1000 nM | < 1000 nM | < 400 nM
17 | C[C@@H](Nc1nc(Cl)nc2c1CN(C(=O)C1(C#N)CC1)CC2)c1cc(N)cc(C(F)(F)F)c1 [Example 194] | < 1000 nM | > 1000 nM | > 400 nM
18 | C[C@@H](Nc1nc(Cl)nc2c1CN(C(=O)C13COC(C1)C3)CC2)c1cc(N)cc(C(F)(F)F)c1 [Example 212] | < 1000 nM | > 1000 nM | > 400 nM
